Source: patent publication US20060241067A1, “Methods For inhibiting angiogenesis, cell migration, cell adhesion, and cell survival” (priority 2002, published 2006)

Tested on: Rho
Assay: Rho activity assay (GST-Rhotekin binding domain affinity precipitation)
Assay type: cell-based, human
Details: cells attached to vitronectin 15 minutes; 250 μM dibutyryl cAMP or transfection
Procedure: Human umbilical vein endothelial cells (HUVEC) were grown in Endothelial Growth Medium (containing 2% fetal bovine serum, bFGF and VEGF) (Clonetics, San Diego, Calif.). To render HUVECs quiescent for Rac and/or Rho assays, monolayers of endothelial cells were incubated for 18 hrs in Endothelial Basal Medium supplemented with 0.1% serum (Clonetics). Cell migration and adhesion assays on ECM substrates were performed as previously described in Kim et al. (S. Kim et al., Amer. J. Biol. Chem., 275:33920-33928 (2000); and S. Kim et al., Amer. J. Path., 156:1345-1362 (2000)).
Rho activity was determined by measuring the amount of Rho affinity bound to GST-Rhotekin binding domain (RBD). Levels of active Rho were determined by Western blotting affinity precipitated protein with anti-Rho antibodies while total Rho levels were measured by immunoblotting total cell lysates with anti-Rho. Rac activity was determined by measuring the amount of Rac affinity precipitated by the GST-p21-activated protein binding domain, PBD (Upstate Biotechnology, Syracuse, N.Y.). Levels of active Rac were determined by immunoblotting affinity precipitated protein with anti-Rac antibodies. […] Total Rac levels were measured by immunoblotting total cell lysates with anti-Rac.

CCCC(=O)Nc1ncnc2c1ncn2[C@@H]1O[C@@H]2COP(=O)(O)O[C@H]2[C@H]1OC(=O)CCC [dibutyryl cAMP]
Rho activity (GTP-loading): stimulates Rho activity (GTP-loading)
